Assay results published in patent publication US8273881B2, “Phenazine compounds and use thereof in autoimmune and inflammatory diseases” (JJ Pharma, Inc., priority 2007, dated 2012).

What was measured:
Type in all cases: in vivo, DBA/1 LacJ mice
[1] = test system: Type II collagen-induced arthritis (CIA) in mice; assay: Collagen-induced arthritis (CIA) mouse model, clinical assessment (involved paws, arthritis score); conditions: for arthritis score vs saline control treated mice (FIG. 2), overall statement: CIA mice, route not specified; for Day post the start of therapy from which a significant reduction (p<0.02) in arthritis score was achieved: each agent at its regimen, Formula III via i.p.
Text: Type II collagen-induced arthritis (CIA) in mice is an accepted experimental model of arthritis with a number of pathological, immunological and genetic features in common with rheumatoid arthritis. This disease is induced by immunization of susceptible strains of mice with type II collagen, the major component of joint cartilage. A progressive, inflammatory arthritis develops in the majority of immunized animals, which is characterized clinically by erythema and edema, with affected paw width increases of typically 100%. A clinical scoring index has been developed to assess disease progression to joint distortion and spondylitis. […] Immunological laboratory findings include high antibody levels to type II collagen and hypergammaglobulinemia.
This study was designed to evaluate the anti-inflammatory and anti-arthritic activity of compound of Formula III using the CIA model by observing changes in immune parameters due to treatment. The animals were administered oral corticosteroid, Enbrel, an injectable TNF inhibitor, and compound of Formula III using both oral and parenteral delivery. Seventy-five DBA/1 LacJ mice 8-10 weeks of age were obtained from Jackson Labs and quarantined in our facility for 10 days prior to experimentation. All mice weighed >16 grams at the start of the experiment. Mice were pre-bled by retro-orbital puncture, and injected with 100 μg Bovine type II collagen in Freund's complete adjuvant (FCA) intradermally at the base of the tail. Mice were monitored by daily examination for the onset of disease. Mice that developed CIA between 20 days post immunization and 42 days post immunization were assigned to one of five treatment groups on a rotational basis (to normalize onset date), and ten mice were assigned to each group. For administration, compound of Formula III was solubilized in sterile saline. To facilitate drugs delivered by oral administration, carboxymethylcellulose was added to a final concentration of 4% in all gavage solutions. Compounds were administered according to the following schedule: • Group 1. 100 μl sterile saline vehicle injected intraperitoneally (i.p.)×3/week. • Group 2. 100 μl sterile saline containing compound of Formula III at 40 mg/kg injected i.p.×3/week. • Group 3. 100 μl sterile saline containing 100 μg Enbrel injected i.p.×3/week. • Group 4. 100 μl sterile saline containing compound of Formula III at 40 mg/kg gavaged×5/week.
Group 5. 100 μl sterile saline containing prednisolone 10 mg/kg gavaged×5/week.
Mice were weighed weekly, and overall health status noted. Arthritiic animals were clinically assessed by visual inspection five times per week, and paw swelling quantified by caliper measurements made three times per week, until seven weeks after the initial onset of arthritis. All animals were assessed individually from the time of disease onset, and the appropriate findings were entered into clinical report forms.

[2] = test system: anti-type II collagen antibody; conditions: after seven weeks of treatment; for terminal anti-CII levels compared with control mice: p<0.01, prednisolone gavage, Formula III i.p.; for terminal anti-CII levels compared with titers at disease onset: prednisolone 10 mg/kg gavage, Formula III 40 mg/kg i.p.
Experimental: (§1) All mice were pre-bled prior to the start of the trial, subsequently at onset of arthritis and at the completion of the trial. Sera were separated and stored at −80° C. ELISA assays were performed to determine anti-type II collagen antibody levels and total immunoglobulin levels.
ELISA plates (Nunc-Immuno plates, Denmark) were coated with 100 μl of coating buffer (0.4M phosphate buffer ph7.6) containing 5 μg of type II collagen, at 4° C. overnight. Plates were washed 3 times with PBS containing 0.05% Tween 20 (Sigma, St. Louis, Mo.) and non specific binding was blocked by PBS containing 5% non fat milk overnight at 4° C. Mouse sera diluted to 1/100 in 5% milk/PBS was added to each well and incubated overnight at 4° C. Subsequently, the plates were washed six times in PBS containing 0.05% Tween-20 and incubated with alkaline phosphatase conjugated goat anti-mouse Ig (Southern Biotechnology Associates, Birmingham, Ala.) at 37° C. for 1 hour. Plates were washed 6 times again and developed for 40 minutes in the dark, using p-nitrophenyl phosphate (Sigma, St. Louis, Mo.) as a chromatogen substrate. The resulting optical density was measured at 405 nm by using a UV max spectrophotometer (Molecular Devices, CA). Negative pre-bleed control sera and a standard mouse anti-CII antiserum were titered on each plate to ensure uniformity of the assay. Antibody binding was expressed as OD405 units-blank.

total serum Ig = assay: ELISA of total serum immunoglobulin levels in CIA mice; conditions: prednisolone gavage; Formula III i.p.; vs control at disease onset or conclusion of trial
Experimental: as §1
Serum Ig levels was assessed using an ELISA assay. Dynatech Immulon I 96 well ELISA plates were coated with a 1/250 dilution of rabbit anti-mouse IgG (Axell) in PBS overnight at 4° C. Plates were washed ×3 with PBS containing 0.05% Tween, and blocked by the addition of 5% BSA in PBS. Serum samples diluted 1/400 in PBS/BSA was dispensed in triplicate, and a reference curve constructed by a doubling dilution titer of mouse Ig reference serum (Miles) from 1/500 to 1/256,000. The plate was incubated overnight at room temperature, and washed ×3 with PBS/Tween. One hundred μl of goat anti-IgG conjugated with alkaline phosphatase (Fisher-Biotek) (1:500 dilution in Milk/PBS/Tween) was added, and the incubation continued for 1 hour at 37° C. After washing×3 with PBS/Tween, 100 μl of paranitrophenyl phosphate solution (PNPP tablets, Sigma) in diethylolamine buffer was added to each well, and the reaction allowed to proceed for 20 minutes in the dark. The plate was read at 405 nm using a Photospectrometer (Molecular Devices), and the data analyzed using the SOFTmax analytical software package. […]

lymph node cells = assay: Lymph node cell mitogen and antigen proliferative responses (MTT) from treated CIA mice; conditions: lymphocytes from mice treated 40 mg/kg i.p.; p<0.05
Experimental: Spleen and lymph nodes were removed at sacrifice, and mitogen responses to Con A and LPS, and antigen proliferative responses to type II collagen were determined using standard techniques. Lymph nodes and spleens were harvested and 1 ml of cell suspension (2.5×10^6/ml) cultured in 12-well tissue culture plates (Costar, Corning, N.Y.) with various stimuli in complete RPMI-1640 medium. Cells were incubated for 3 days at 37° C. in a 5% CO2 atmosphere in the presence of mitogen or antigen. 20 µl of MTT (a mitochondrial enzyme substrate) solution (5 mg/ml; Sigma, St Louis, Mo.) was added per well. After 6 hours, the culture supernatant was discarded, and 200 µl of 10% SDS solution added to each well. After incubation at 37° C. overnight, the optical density at 590 nm was read using a microplate photospectrometer (Molecular Devices, CA). The mean and OD values, which provide a measure of cell proliferation, were recorded for each cell sample with respect to antigen stimulation. Antigen specific responses were expressed as (OD590 [Stimulated Culture]−OD590 [Spontaneous proliferation culture])/OD590 [Spontaneous proliferation culture].

Compound	number of involved paws vs control mice ([1]; 40 mg/kg i.p. ×3/week or gavaged ×5/week, irrespective of the route of administration)	reduction in arthritis score vs saline control ([1]; 40 mg/kg i.p. ×3/week, p<0.02 from Day 23, p<0.007 at Day 24, sustained until end of trial)	effect upon arthritis score vs saline control ([1]; 40 mg/kg oral gavage ×5/week)	arthritis score vs saline control treated mice (FIG. 2), overall statement [1]	Day post the start of therapy from which a significant reduction (p<0.02) in arthritis score was achieved [1] [days]	terminal anti-CII levels compared with control mice [2]	terminal anti-CII levels compared with titers at disease onset [2]	total serum Ig levels at the terminal bleed vs control mice (total serum Ig)	lymph node cell response to LPS (lymph node cells)	number of involved (arthritic) paws vs control mice ([1]; prednisolone 10 mg/kg gavaged ×5/week, from Day 16 after arthritis onset throughout the study, p<0.002)	reduction in arthritis score vs saline control ([1]; prednisolone 10 mg/kg gavaged ×5/week, p<0.02 from Day 12, p<0.001 at day 17, sustained for remainder of trial)	number of involved (arthritic) paws vs control mice ([1]; 100 μg Enbrel i.p. ×3/week, Day 25 through Day 28, p<0.05)	reduction in arthritis score vs saline control ([1]; 100 μg Enbrel i.p. ×3/week, p<0.02 from Day 12, not sustained until 23 days of therapy)
COc1cccc2c1[n+]([O-])c1cccc(O)c1[n+]2[O-] [compound of Formula III]	did not significantly influence the number of involved paws	significant reduction	did not exert a statistically significant effect	marked effect upon the arthritis score	23	significant reduction	maintenance of titers equivalent to the levels at onset	this reduction was not significantly different	significant reduction				
C[C@]12C=CC(=O)C=C1CC[C@@H]1[C@@H]2[C@@H](O)C[C@@]2(C)[C@H]1CC[C@]2(O)C(=O)CO [prednisolone]				significantly reduced the arthritis score	12	significant reduction	minor decrease	this reduction was not significantly different		significantly lower number of arthritic paws	significant reduction		
Enbrel				significantly reduced the arthritis score	12							significantly lower number of arthritic paws	significant reduction
